Earlier results as cited in patent US20050159809A1, “Implantable medical devices for treating or preventing restenosis” (Medtronic Vascular, Inc., priority 2004, published 2005).

Tested on: balloon-injury induced neointimal thickening and macrophage accumulation
Details: four weeks after balloon de-endothelialization

## CC(C)(Sc1cc(C(C)(C)C)c(O)c(C(C)(C)C)c1)Sc1cc(C(C)(C)C)c(O)c(C(C)(C)C)c1 [probucol, {[bis(3,5-di-tert-butyl-4-hydroxyphenyl)thio]propane}]
High cholesterol rabbit food plus 1% probucol vs cholesterol-only diet, P<0.05
  absolute neointima thickness: reduced
High cholesterol rabbit food plus 1% probucol vs high cholesterol feed without probucol, P<0.001
  macrophage content in the neointima: lower
